Measured values as given in US8501804B2, “Bicyclic compound” (Takeda Pharmaceutical Company Limited, priority 2008, dated 2013).

Key:
human ACC1 = molecular target: T1, human ACC1 (Homo sapiens, UniProt Q13085); assay: ACC1 inhibitory activity (malachite green); format: biochemical; details: test compound 10 μM; for inhibition at 10 µM: read-out: ACC1 10 μM inhibitory rate (%)
T1 construct: His6 (from vector pFAST-BacHTc); made in house; host or cells: SF-9 insect cells, recombinant baculovirus BAC-ACC1
Outline: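 His-tagged human ACC1 from baculovirus-infected Sf9 cells was Ni-NTA purified, diluted to 8 μg/ml, and preincubated with compound for 60 min at 30 °C in HEPES pH 7.5 buffer with MgCl2, citrate, DTT and BSA. Substrate solution (50 mM KHCO3, 200 μM ATP, 200 μM acetyl-CoA) was added for 20 min at 30 °C. Phosphate was read by malachite green at 620 nm against no-compound and no-acetyl-CoA controls.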

human ACC2 (Nd) = molecular target: T2, human ACC2 (Nd) (Homo sapiens, UniProt O00763); assay: ACC2 inhibitory activity (malachite green); format: biochemical; details: test compound 10 μM; for inhibition at 10 µM: read-out: ACC2 10 μM inhibitory rate (%)
T2 construct: His6 (from vector pFAST-BacHTa); made in house; host or cells: SF-9 insect cells, recombinant baculovirus BAC-ACC2 (Nd)
T2 sequence (O00763 117-2458 limits assumed): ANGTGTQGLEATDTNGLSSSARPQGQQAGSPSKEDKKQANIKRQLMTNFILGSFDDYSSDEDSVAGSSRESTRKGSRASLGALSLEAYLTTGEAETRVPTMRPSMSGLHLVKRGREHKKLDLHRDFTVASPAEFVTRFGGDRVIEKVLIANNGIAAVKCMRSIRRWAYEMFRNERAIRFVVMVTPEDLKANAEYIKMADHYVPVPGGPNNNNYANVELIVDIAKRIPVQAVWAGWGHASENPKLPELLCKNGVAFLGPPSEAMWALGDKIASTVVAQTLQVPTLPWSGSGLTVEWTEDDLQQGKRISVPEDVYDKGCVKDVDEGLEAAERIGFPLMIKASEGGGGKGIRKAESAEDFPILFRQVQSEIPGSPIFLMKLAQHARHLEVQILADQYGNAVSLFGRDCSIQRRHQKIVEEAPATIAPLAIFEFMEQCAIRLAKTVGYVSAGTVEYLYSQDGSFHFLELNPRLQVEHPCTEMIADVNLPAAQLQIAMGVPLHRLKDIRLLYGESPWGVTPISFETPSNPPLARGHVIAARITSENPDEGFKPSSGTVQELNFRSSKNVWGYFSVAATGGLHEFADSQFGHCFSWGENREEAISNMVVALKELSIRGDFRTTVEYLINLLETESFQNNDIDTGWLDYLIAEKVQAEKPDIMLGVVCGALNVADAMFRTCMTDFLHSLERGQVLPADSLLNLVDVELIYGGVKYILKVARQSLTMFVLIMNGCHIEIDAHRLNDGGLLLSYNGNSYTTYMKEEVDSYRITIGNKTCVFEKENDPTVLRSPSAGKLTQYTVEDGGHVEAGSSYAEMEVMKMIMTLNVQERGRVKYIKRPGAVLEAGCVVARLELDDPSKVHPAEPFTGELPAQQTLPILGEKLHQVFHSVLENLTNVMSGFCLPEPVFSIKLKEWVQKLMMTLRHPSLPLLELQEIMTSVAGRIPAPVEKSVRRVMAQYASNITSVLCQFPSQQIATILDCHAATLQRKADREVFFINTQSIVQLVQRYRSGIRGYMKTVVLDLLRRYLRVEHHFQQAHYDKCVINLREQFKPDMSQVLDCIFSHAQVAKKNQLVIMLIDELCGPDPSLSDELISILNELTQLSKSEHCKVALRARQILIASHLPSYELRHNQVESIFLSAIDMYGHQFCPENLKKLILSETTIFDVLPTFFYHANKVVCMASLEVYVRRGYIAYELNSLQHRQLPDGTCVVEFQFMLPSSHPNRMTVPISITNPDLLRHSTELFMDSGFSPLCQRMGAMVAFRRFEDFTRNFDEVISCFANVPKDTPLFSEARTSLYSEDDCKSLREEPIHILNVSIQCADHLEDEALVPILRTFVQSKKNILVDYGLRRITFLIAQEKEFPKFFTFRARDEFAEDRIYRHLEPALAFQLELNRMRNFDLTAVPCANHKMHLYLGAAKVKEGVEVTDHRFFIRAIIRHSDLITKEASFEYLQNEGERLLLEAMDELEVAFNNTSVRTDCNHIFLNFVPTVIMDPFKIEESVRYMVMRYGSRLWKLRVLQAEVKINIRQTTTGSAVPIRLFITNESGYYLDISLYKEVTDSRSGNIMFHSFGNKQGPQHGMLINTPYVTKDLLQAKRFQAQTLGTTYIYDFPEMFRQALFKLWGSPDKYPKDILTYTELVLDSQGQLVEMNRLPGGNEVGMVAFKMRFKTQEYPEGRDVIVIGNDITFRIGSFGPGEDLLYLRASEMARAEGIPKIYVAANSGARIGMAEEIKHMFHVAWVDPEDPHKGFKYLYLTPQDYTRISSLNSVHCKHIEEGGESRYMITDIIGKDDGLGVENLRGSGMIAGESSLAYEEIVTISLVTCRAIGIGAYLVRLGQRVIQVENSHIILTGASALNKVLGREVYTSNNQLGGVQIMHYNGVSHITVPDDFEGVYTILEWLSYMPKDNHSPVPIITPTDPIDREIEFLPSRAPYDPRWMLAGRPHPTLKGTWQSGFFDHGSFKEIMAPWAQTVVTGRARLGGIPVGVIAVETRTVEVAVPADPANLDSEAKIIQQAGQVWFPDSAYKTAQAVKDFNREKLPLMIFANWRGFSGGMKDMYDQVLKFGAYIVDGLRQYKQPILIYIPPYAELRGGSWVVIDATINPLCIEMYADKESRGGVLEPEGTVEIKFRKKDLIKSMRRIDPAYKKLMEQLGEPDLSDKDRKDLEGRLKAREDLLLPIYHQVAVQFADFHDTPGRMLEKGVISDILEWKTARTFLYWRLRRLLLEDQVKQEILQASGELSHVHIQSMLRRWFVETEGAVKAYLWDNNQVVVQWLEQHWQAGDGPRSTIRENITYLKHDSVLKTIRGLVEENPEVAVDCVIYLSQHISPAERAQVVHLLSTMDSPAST
Outline: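 Enzyme: N-terminally truncated human ACC2 lacking the mitochondrial targeting sequence, His-tagged, expressed in baculovirus-infected Sf9 cells and Ni-NTA purified. Working dilution 6.4 μg/ml in 50 mM HEPES pH 7.5, 10 mM MgCl2, 10 mM tripotassium citrate, 2 mM DTT, 0.75 mg/ml fatty-acid-free BSA. Test compound in DMSO.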

| inhibition at 10 µM (human ACC1) [%] | inhibition at 10 µM (human ACC2 (Nd)) [%] | ACC1 10 μM inhibitory rate (%) (human ACC1) | ACC2 10 μM inhibitory rate (%) (human ACC2 (Nd)) | Compound |
| --- | --- | --- | --- | --- |
| 24 | 70 | – | – | CC(=O)NC(C)c1cc2cc(OCc3ccc(OCC4CC4)nc3F)ccc2o1 (stereo not shown) [Example 153, N-[1-(5-{[6-(cyclopropylmethoxy)-2-fluoropyridin-3-yl]methoxy}-1-benzofuran-2-yl)ethyl]acetamide] |
| 39 | 78 | – | – | CC(=O)NC(C)c1cc2cc(OCc3cnc(OCC4CC4)cc3F)ccc2o1 (stereo not shown) [Example 154, N-[1-(5-{[6-(cyclopropylmethoxy)-4-fluoropyridin-3-yl]methoxy}-1-benzofuran-2-yl)ethyl]acetamide] |
| 50 | 93 | – | – | CC(=O)NC(C)c1coc2cc(OCc3ccc(OCC4CC4)nc3F)ccc12 (stereo not shown) [Example 164, N-[1-(6-{[6-(cyclopropylmethoxy)-2-fluoropyridin-3-yl]methoxy}-1-benzofuran-3-yl)ethyl]acetamide] |
| 23 | 75 | – | – | CSCCOc1ccc(CCc2ccc3cc(C(C)NC(C)=O)oc3c2)cc1 (stereo not shown) [Example 169, N-{1-[6-(2-{4-[2-(methylsulfanyl)ethoxy]phenyl}ethyl)-1-benzofuran-2-yl]ethyl}acetamide] |
| 30 | 84 | – | – | CC(=O)NC(C)c1cc2ccc(CCc3ccc(OC4CCCC4)cc3)cc2o1 (stereo not shown) [Example 170, N-[1-(6-{2-[4-(cyclopentyloxy)phenyl]ethyl}-1-benzofuran-2-yl)ethyl]acetamide] |
| 34 | 80 | – | – | CC(=O)NC(C)c1cc2ccc(CCc3ccc(OCCC4CC4)cc3)cc2o1 (stereo not shown) [Example 174, N-[1-(6-{2-[4-(2-cyclopropylethoxy)phenyl]ethyl}-1-benzofuran-2-yl)ethyl]acetamide] |
| 15 | 74 | – | – | CCOc1ccc(COc2ccc3cc(C(C)NC(C)=O)oc3c2)cc1Br (stereo not shown) [Example 175, N-(1-{6-[(3-bromo-4-ethoxybenzyl)oxy]-1-benzofuran-2-yl}ethyl)acetamide] |
| 31 | 88 | – | – | CC(Nc1ccon1)c1cc2ccc(CCc3ccc(OCC4CC4)cc3)cc2o1 (stereo not shown) [Example 176, N-[1-(6-{2-[4-(cyclopropylmethoxy)phenyl]ethyl}-1-benzofuran-2-yl)ethyl]isoxazol-3-amine] |
| – | – | 37 | 77 | CCCCOc1ccc(CCc2ccc3cc(C(C)NC(C)=O)oc3c2)cc1 (stereo not shown) [Example 189 (retention time shorter)] |
| 29 | 79 | – | – | CCOc1ccc(CCc2ccc3cc(C(C)NC(C)=O)oc3c2)cc1 (stereo not shown) [Example 190 (retention time longer), N-(1-{6-[2-(4-ethoxyphenyl)ethyl]-1-benzofuran-2-yl}ethyl)acetamide] |
| – | – | 20 | 75 | CC(=O)NC(C)c1cc2ccc(CCc3ccc(OCC4CC4)cc3)cc2o1 (stereo not shown) [Example 191 (retention time shorter), N-[1-(6-{2-[4-(cyclopropylmethoxy)phenyl]ethyl}-1-benzofuran-2-yl)ethyl]acetamide] |
